One experiment deals with IL-1β, human whole blood. The experiment can be described thus: Whole blood assay for IL-1β production. In kind it is cell-based. The essentials: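 IL-1β was quantified by ELISA in plasma diluted 1:200. The plasma came from EDTA-anticoagulated human whole blood incubated at 30 °C for 16-18 h with LPS (final 5.0 ng/ml) plus a saline serial dilution of compound. Controls were no-LPS, no-inhibitor and highest-vehicle.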

Another experiment deals with T1, ICE (Homo sapiens, UniProt P29466).
T1 sequence (P29466 120-297 limits assumed): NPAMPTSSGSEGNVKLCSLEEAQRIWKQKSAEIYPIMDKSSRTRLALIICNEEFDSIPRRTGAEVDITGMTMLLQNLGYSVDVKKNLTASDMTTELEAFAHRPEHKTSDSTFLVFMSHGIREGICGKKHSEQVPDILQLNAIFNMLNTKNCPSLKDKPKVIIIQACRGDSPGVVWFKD
T1 sequence (P29466 317-404 limits assumed): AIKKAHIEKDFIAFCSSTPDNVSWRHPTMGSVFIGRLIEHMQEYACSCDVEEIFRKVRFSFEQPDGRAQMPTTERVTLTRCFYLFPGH
The experiment can be described thus: Enzyme assay with UV-visible substrate (visible ICE assay, Succinyl-Tyr-Val-Ala-Asp-pNitroanilide). The experiment is classed as biochemical. The essentials: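 Colorimetric caspase-1 activity: 15 min enzyme-inhibitor preincubation (RT), then Suc-Tyr-Val-Ala-Asp-pNA; 405-603 nm kinetics, 20 min, 37° C. Ki from rate fitting.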

Where [1] appears, read: Homo sapiens, * = values obtained upon reassay, read-out: Whole human blood IC50.
Setting [2] is: * = values obtained upon reassay, read-out: Whole human blood IC50.
Where [3] appears, read: Homo sapiens, Table 17, read-out: Whole human blood IC50.

Where two headings read alike, the source gives them in different places.

This is an account of results in US20120165319A1, “INHIBITORS OF INTERLEUKIN-1 BETA CONVERTING ENZYME” (VERTEX PHARMACEUTICALS INCORPORATED, priority 1995, published 2012).

Broadly, the Ki is a dissociation constant, usually derived from enzyme kinetics or from competition with a known ligand.

As to `O=C(O)C[C@H](NC(=O)[C@@H]1CCCN2C(=O)CC[C@H](NC(=O)OCc3ccccc3)C(=O)N12)C(=O)COC(=O)c1c(Cl)cccc1Cl` [Compound 217d, [3S(1S,9S)]3-(9-Benzyloxycarbonylamino-6,10-dioxo-1,2,3,4,7,8,9,10-octahydro-6H-pyridazino[1,2-a][1,2]-diazepine-1-carboxamido)-5-(2,6-dichlorobenzoyloxy)-4-oxopentanoic acid], the IC50 with IL-1β, human whole blood (setting [1]) stood at 4000 nM.
The compound `CCOC(=O)C[C@H](NC(=O)[C@@H]1CCCN2C(=O)CC[C@H](NC(=O)c3ccccc3)C(=O)N12)C(OCC)OCC` [Compound 2100b] yielded a Ki at ICE (Table 5) of 8000 nM. For the same compound, the IC50 in the experiment on IL-1β, human whole blood (setting [1]) is > 20000 nM.
At ICE (Table 5), `O=C[C@H](CC(=O)O)NC(=O)[C@@H]1CCCN2CCC[C@H](NC(=O)c3ccccc3)C(=O)N12` [Compound 246] returned an inhibition constant (Ki) of 12 nM. Moreover, in the experiment on IL-1β, human whole blood (setting [1]), the IC50 worked out at 10000 nM.
The matching figures for `O=C(O)C[C@H](NC(=O)[C@@H]1CCCN2C(=O)CC[C@H](NC(=O)c3ccccc3)C(=O)N12)C(=O)c1nc2cc(Cl)cc(Cl)c2o1` [Compound 223e, [3S(1S,9S)]3-(9-Benzoylamino-6,10-dioxo-1,2,3,4,7,8,9,10-octahydro-6H-pyridazino-[1,2-a][1,2]diazepine-1-carboxamido)-4-(5,7-dichlorobenzoxazol-2-yl)-4-oxobutanoic acid]: 1.6 nM and > 20000 nM.
For `O=C(O)CC(NC(=O)[C@@H]1CCCN2C(=O)CC[C@H](NC(=O)c3ccccc3)C(=O)N12)C(=O)CF` (stereo partly drawn) [Compound 230e, [3RS,(1S,9S)]3-(9-Benzoylamino-6,10-dioxo-1,2,3,4,7,8,9,10-octahydro-6H-pyridazino[1,2-a][1,2]-diazepine-1-carboxamido)-5-fluoro-4-oxopentanoic acid], the IC50 in the experiment on IL-1β, human whole blood (setting [2]) was determined as 300 nM.
Take `CC(C)OC1OC(=O)C[C@@H]1NC(=O)[C@@H]1CCCN2C(=O)CC[C@H](NC(=O)c3ccccc3)C(=O)N12` (stereo partly drawn) [Compound 2100a, [1S,9S(2RS,3S)]9-Benzoylamino-6,10-dioxo-1,2,3,4,7,8,9,10-octahydro-N-(2-isopropoxy-5-oxo-tetrahydro-furan-3-yl)-6H-pyridazino-[1,2-a][1,2]diazepine-1-carboxamide]: the Ki at ICE (Table 5) amounted to 100 nM. In addition, the IC50 in the experiment on IL-1β, human whole blood (setting [1]) is 850 nM.
Taken in the same sequence, the figures for `CCOC1OC(=O)C[C@@H]1NC(=O)[C@@H]1CCCN2C(=O)CC[C@H](NC(=O)c3ccccc3)C(=O)N12` (stereo partly drawn) [Compound 2100e, [1S,9S(2RS,3S)]9-Benzoylamino-6,10-dioxo-1,2,3,4,7,8,9,10-octahydro-N-(2-ethoxy-5-oxo-tetrahydro-furan-3-yl)-6H-pyridazino[1,2-a][1,2]-diazepine-1-carboxamide] were 250 nM and 600 nM.
Consider `O=C(O)C[C@H](NC(=O)[C@@H]1CCCN2C(=O)CC[C@H](NC(=O)c3ccccc3)C(=O)N12)C(=O)CSCc1ccccc1Cl` [Compound 226e, [3S(1S,9S)]3-(9-Benzoylamino-6,10-dioxo-1,2,3,4,7,8,9,10-octahydro-6H-pyridazino[1,2-a][1,2]-diazepine-1-carboxamido)-5-(2-chlorophenyl)methylthio-4-oxopentanoic acid], for which affinity on ICE (Table 5) was put at a Ki of 15 nM. In addition, the IC50 in the experiment with IL-1β, human whole blood (setting [1]) turned out to be 1800 nM.
`O=C1C[C@H](NC(=O)[C@@H]2CCCN3C(=O)CC[C@H](NC(=O)c4ccccc4)C(=O)N23)C(OCCc2ccccc2)O1` (mixture of isomers) [Compound 2100k, [1S,9S(2RS,3S)]9-Benzoylamino-6,10-dioxo-1,2,3,4,7,8,9,10-octahydro-N-(2-phenethyloxy-5-oxotetrahydrofuran-3-yl)-6H-pyridazino[1,2-a][1,2]diazepine-1-carboxamide]: the affinity at ICE (Table 17), expressed as Ki, was 520 nM. Moreover, the IC50 in the experiment with IL-1β, human whole blood (setting [3]) came out at 600 nM.
`O=C(O)C[C@H](NC(=O)[C@@H]1CCCN2C(=O)CC[C@H](NC(=O)CCc3ccccc3)C(=O)N12)C(=O)c1ncc(-c2c(Cl)cccc2Cl)o1` [Compound 137]: the IC50 with IL-1β, human whole blood (setting [1]) came out at 14000 nM.
On ICE (Table 5), `O=C1C[C@H](NC(=O)[C@@H]2CCCN3C(=O)CC[C@H](NC(=O)c4ccccc4)C(=O)N23)C(OCc2ccccc2)O1` (stereo partly drawn) [Compound 213e, [1S,9S(2RS,3S)]9-Benzoylamino-6,10-dioxo-1,2,3,4,7,8,9,10-octahydro-N-(2-benzyloxy-5-oxotetrahydrofuran-3-yl)-6H-pyridazino[1,2-a][1,2]-diazepine-1-carboxamide] displayed a Ki of 130 nM. The IC50 came out at 400 nM in the experiment with IL-1β, human whole blood (setting [2]) and 600 nM in the experiment on IL-1β, human whole blood (setting [1]).
`CC(C)(C)OC(=O)C[C@@H](C=O)NC(=O)[C@@H]1CCCN2C(=O)CC[C@H](NC(=O)c3ccccc3)C(=O)N12` [Compound 302, [3S(1S,9S)3-(9-Benzoylamino-6,10-dioxo-1,2,3,4,7,8,9,10-octahydro-6H-pyriazino-[1,2-a][1,2]diazapine-1-carboxamido)-amino]-4-oxobutanoic acid tert-butyl ester] showed a Ki on ICE (Table 5) of 4500 nM. Also, in the experiment on IL-1β, human whole blood (setting [1]), the IC50 was > 20000 nM.
On to `O=C(O)C[C@H](NC(=O)[C@@H]1CCCN2C(=O)CC[C@H](NC(=O)c3ccccc3)C(=O)N12)C(=O)COC(=O)c1c(Cl)cccc1Cl` [Compound 217e, [3S(1S,9S)]3-(9-Benzoylamino-6,10-dioxo-1,2,3,4,7,8,9,10-octahydro-6H-pyridazino[1,2-a][1,2]-diazepine-1-carboxamido)-5-(2,6-dichlorobenzoyloxy)-4-oxopentanoic acid], for which the IC50 with IL-1β, human whole blood (setting [1]) was found to be 2000 nM.
Take `CS(=O)(=O)N[C@H]1CCC(=O)N2CCC[C@@H](C(=O)N[C@@H](CC(=O)O)C(=O)COC(=O)c3c(Cl)cccc3Cl)N2C1=O` [Compound 138]: the IC50 in the experiment with IL-1β, human whole blood (setting [1]) turned out to be 2900 nM.
`O=C1C[C@H](NC(=O)[C@@H]2CCCN3C(=O)CC[C@H](NC(=O)C(=O)c4ccccc4)C(=O)N23)C(OCc2ccccc2)O1` (stereo partly drawn) [Compound 2001, [1S,9S(2RS,3S)]9-Benzoylformylamino-6,10-dioxo-1,2,3,4,7,8,9,10-octahydro-N-(2(R,S)-benzyloxy-5-oxotetrahydrofuran-3-yl)-6H-pyridazino[1,2-a][1,2]-diazepine-1-carboxamide] yielded a Ki on ICE (Table 5) of 135 nM. The IC50 in the experiment on IL-1β, human whole blood (setting [1]) came to 3500 nM.
With `O=C(O)C[C@H](NC(=O)[C@@H]1CCCN2C(=O)CC[C@H](NC(=O)CCc3ccccc3)C(=O)N12)C(=O)CSCc1ccccc1Cl` [Compound 125b, [3S(1S,9S)]-3-(6,10-dioxo-1,2,3,4,7,8,9,10-octahydro)-9-(3-phenylpropionyl-amino)-6H-pyridazine[1,2-a][1,2]diazepine-1-carboxamido-5-(2-chlorophenyl-methylthio)-4-oxopentanoic acid], the IC50 in the experiment with IL-1β, human whole blood (setting [1]) stood at 4500 nM.
`CC(C)OC(=O)C[C@H](NC(=O)[C@@H]1CCCN2C(=O)CC[C@H](NC(=O)c3ccccc3)C(=O)N12)C(OC(C)C)OC(C)C` [Compound 2100d]: the Ki at ICE (Table 5) was > 100000 nM. For the same compound, the IC50 with IL-1β, human whole blood (setting [1]) is > 20000 nM.
In turn, `COC(=O)C[C@H](NC(=O)[C@@H]1CCCN2C(=O)CC[C@H](NC(=O)c3ccccc3)C(=O)N12)C(OC)OC` [Compound 2100c] registered an inhibition constant Ki at ICE (Table 5) of 7400 nM. In the experiment with IL-1β, human whole blood (setting [1]), the IC50 was > 20000 nM.
Taken in the same sequence, the figures for `CC(=O)N1C[C@H](NC(=O)c2ccc3ccccc3c2)C(=O)N(CC(=O)N[C@H](C=O)CC(=O)O)c2ccccc21` [Compound 605n] were 12 nM and > 20000 nM.
The compound `O=C1C[C@H](NC(=O)[C@@H]2CCCN3C(=O)CC[C@H](NC(=O)c4ccccc4)C(=O)N23)[C@H](OCc2ccccc2)O1` [Compound 2100o, [1S,9S(2R,3S)]9-Benzoylamino-N-(2-benzyloxy-5-oxotetrahydrofuran-3-yl)-6,10-dioxo-1,2,3,4,7,8,9,10-octahydro-6H-pyridazino[1,2-a][1,2]diazepine-1-carboxamide] had a Ki at ICE (Table 17) of 670 nM. Besides, the IC50 with IL-1β, human whole blood (setting [3]) amounted to 1500 nM.
Consider `CS(=O)(=O)N[C@H]1CCC(=O)N2CCC[C@@H](C(=O)N[C@@H](CC(=O)O)C(=O)COC(=O)c3sccc3Cl)N2C1=O` [505 e, [3S(1S,9S)]5-(3-Chlorothien-2-oyloxy)-3-(6,10-dioxo-9-methanesulphonylamino-1,2,3,4,7,8,9,10-octahydro-6H-pyridazino[1,2-a][1,2]diazepine-1-carboxamido)-4-oxopentanoic acid], for which, in the experiment on IL-1β, human whole blood (Table 18, read-out: Whole human blood IC5O), the IC50 came out at 1000 nM.
Take `COc1cccc2nc(C(=O)[C@H](CC(=O)O)NC(=O)[C@@H]3CCCN4C(=O)CC[C@H](NC(=O)CCc5ccccc5)C(=O)N34)oc12` [Compound 135a]: the IC50 with IL-1β, human whole blood (setting [1]) came to 5000 nM.
For the compound `CC(=O)N[C@H]1CCC(=O)N2CCC[C@@H](C(=O)N[C@@H](CC(=O)O)C(=O)COC(=O)c3c(Cl)cccc3Cl)N2C1=O` [Compound 217c, [3S(1S,9S)]3-(9-Acetylamino-6,10-dioxo-1,2,3,4,7,8,9,10-octahydro-6H-pyridazino-[1,2-a][1,2]diazepine-1-carboxamido)-5-(2,6-dichlorobenzoyloxy)-4-oxopentanoic acid], the IC50 in the experiment on IL-1β, human whole blood (setting [1]) worked out at 7000 nM.
For the compound `O=C(O)C[C@H](NC(=O)[C@@H]1CCCN2C(=O)CC[C@H](NC(=O)CCc3ccccc3)C(=O)N12)C(=O)COC(=O)c1c(Cl)cccc1Cl` [Compound 136], the IC50 in the experiment on IL-1β, human whole blood (setting [1]) was 2800 nM.
Consider `O=C1C[C@H](NC(=O)[C@@H]2CCCN3C(=O)CC[C@H](NC(=O)c4ccccc4)C(=O)N23)C(OCc2ccccc2)O1` (single isomer, unassigned) [Compound 2100n], for which the Ki on ICE (Table 17) stood at 670 nM. In addition, the IC50 in the experiment with IL-1β, human whole blood (setting [3]) is 4000 nM.
